The results in this text go back to US20170057955A1, “Pyridopyrimidinone Compounds for Modulating the Catalytic Activity of Histone Lysine Demethylases (KDMs)” (Dong-A Socio Holdings Co., Ltd., priority 2015, published 2017).

SMILES strings stand for the structures.

T1 sequence (Q9UGL1 whole entry): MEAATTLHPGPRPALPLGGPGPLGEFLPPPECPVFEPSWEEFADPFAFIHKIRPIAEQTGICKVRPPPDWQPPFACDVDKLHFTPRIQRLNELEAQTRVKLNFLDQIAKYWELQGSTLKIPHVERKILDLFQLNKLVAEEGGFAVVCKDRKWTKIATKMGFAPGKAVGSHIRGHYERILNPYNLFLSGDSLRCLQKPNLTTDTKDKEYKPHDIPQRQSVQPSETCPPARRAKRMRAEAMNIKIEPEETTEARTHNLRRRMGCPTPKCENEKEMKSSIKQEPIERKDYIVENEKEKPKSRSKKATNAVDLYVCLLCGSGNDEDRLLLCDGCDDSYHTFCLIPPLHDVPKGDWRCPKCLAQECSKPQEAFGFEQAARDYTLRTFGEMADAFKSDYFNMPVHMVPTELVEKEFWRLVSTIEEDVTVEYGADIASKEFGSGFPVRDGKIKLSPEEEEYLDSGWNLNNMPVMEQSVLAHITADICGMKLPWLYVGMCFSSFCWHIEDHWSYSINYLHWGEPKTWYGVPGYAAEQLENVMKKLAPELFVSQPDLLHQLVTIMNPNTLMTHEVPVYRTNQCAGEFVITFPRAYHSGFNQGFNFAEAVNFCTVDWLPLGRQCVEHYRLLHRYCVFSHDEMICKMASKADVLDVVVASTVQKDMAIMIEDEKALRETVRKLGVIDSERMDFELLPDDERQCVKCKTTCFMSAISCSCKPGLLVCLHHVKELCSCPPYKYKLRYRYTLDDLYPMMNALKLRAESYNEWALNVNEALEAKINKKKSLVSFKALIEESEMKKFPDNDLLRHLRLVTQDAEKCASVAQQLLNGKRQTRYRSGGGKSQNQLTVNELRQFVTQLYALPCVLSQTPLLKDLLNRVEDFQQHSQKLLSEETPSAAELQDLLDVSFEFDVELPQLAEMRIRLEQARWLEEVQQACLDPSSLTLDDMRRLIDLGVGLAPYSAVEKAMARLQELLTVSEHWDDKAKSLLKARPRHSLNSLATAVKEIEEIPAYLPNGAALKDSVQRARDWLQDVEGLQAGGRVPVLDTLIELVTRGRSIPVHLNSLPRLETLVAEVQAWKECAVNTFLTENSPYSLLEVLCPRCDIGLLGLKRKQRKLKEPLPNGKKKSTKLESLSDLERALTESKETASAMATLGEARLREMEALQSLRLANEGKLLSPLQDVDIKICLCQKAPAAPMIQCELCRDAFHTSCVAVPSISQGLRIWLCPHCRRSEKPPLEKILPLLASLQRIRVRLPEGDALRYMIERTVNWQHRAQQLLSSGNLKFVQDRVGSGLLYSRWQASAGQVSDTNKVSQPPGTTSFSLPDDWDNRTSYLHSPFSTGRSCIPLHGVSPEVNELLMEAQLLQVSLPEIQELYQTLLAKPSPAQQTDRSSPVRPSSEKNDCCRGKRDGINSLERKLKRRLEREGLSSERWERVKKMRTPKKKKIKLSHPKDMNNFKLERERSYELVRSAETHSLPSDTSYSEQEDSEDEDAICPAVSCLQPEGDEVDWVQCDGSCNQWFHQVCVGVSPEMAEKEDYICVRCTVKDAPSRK

The assay has as its target T1, Recombinant human JARID1B/KDM5B (Homo sapiens, UniProt Q9UGL1).
T1 construct: purchased Active Motif 31432; host or cells: Sf9 insect cells
As to the kind of experiment: LANCE Ultra TR-FRET JARID1B (KDM5B) demethylase inhibition assay. The format is biochemical. The note with it: 0.1 uM of test-compounds, FLAG-JARID1B, 500 nM biotinylated H3K4me3 peptide substrate, 30 min at room temperature. The text has this:
FLAG-tagged JARID1B (also known as KDM5B) protein was screened against 49 compounds. For this compound screening, LANCE Ultra time-resolved fluorescence resonance energy transfer (TR-FRET) assay was employed using a europoium (Eu)-labeled antibody that can specifically recognize mono- or dimethylated peptides (H3K4me2/1) and ULight-streptavidin (ULight-SA), a small molecule fluorescent dye. When irradiated at 340 nm, the energy from the Eu donor is transferred to the ULight acceptor dye which, in turn, emits light primarily at 665 nm. The ratio between the intensity of primary emission at 665 nm and that of secondary emission at […] was used to quantify the level of lysine methylation. As JARID1B removes more methyl moieties from tri-methylated substrate peptides (H3K4me3), the ratio increases until the enzyme reaction is terminated. In case, therefore, the compounds disrupt the enzymatic activity completely, the ratio becomes equal to a background value.
Recombinant human JARID1B/KDM5B (accession number NP_006609) of molecular weight 179.9 KDa was expressed in Sf9 insect cells and contains an N-terminal FLAG tag. The enzyme was obtained from Active Motif (Catalog No. 31432). The tri-methylated histone substrate peptide of purity greater than 95% was a synthetic peptide in which the first 21 amino acids correspond to the human histone H3 sequence with three extra amino acids and a biotin motif (GGK-biotin) linked to the C-terminus [sequence: ART-K(Me3)-QTARKSTGGKAPRKQLA-GGK-biotin-OH], (AnaSpec, Fremont, Calif. Catalog. No. ANA-1413). The reference inhibitor compound tranylcypromine (or trans-2-phenylcyclopropylamine hydrochloride, also known as, 2-PCPA) was purchased from Sigma (St. Louis, Mo. Cat. no. P8511). ULight-labeled streptavidin (ULight-SA, Catalog no. TRF0102), Eu-W1024-labeled anti-methyl-Histone H3 Lysine 4 (H3K4me1-2) Antibody (Catalog no. TRF0402), and LANCE detection buffer 10× (Catalog no. CR97-100) were obtained from PerkinElmer (Montreal, Quebec, Canada). The TR-FRET experiments were carried out in white, low-volume 384-wellplates purchased from PerkinElmer (ProxiPlate_-384 Plus, Catalog no. 6008280).
The TR-FRET signal was measured in the presence both of the bio-H3K4me3 peptide and FLAG-JARID1B by detecting any H3K4me2/1 peptide produced in the assay system. Assays using only the bio-H3K4me2 peptide were served as a positive control. Robust enzymatic progressions were observed by using JARID1B at concentrations ranging from 10 to 30 nM. In a typical TR-FRET experiment, JARID1B was pre-incubated with or without 0.1 uM of test-compounds (containing 1% DMSO final) for 5 min. The enzymatic reactions were initiated by the addition of 500 nM biotinylated H3K4me3 peptide substrate plus 500 uM of 2-OG 25 uM Fe(II) and 2 mM ascorbate. The reaction buffer also contained 50 mM Hepes (pH7.5), 0.01% (v/v) Tween 20, and 50 mM NaCl. The reaction mixture was incubated for 30 min at room temperature before reading on an EnVision plate reader (PerkinElmer, Waltham, Mass.).
For `O=c1[nH]cnc2c(-c3csc(NC4CCN(Cc5ccccc5)CC4)n3)nccc12` [Compound 61, 8-(2-((1-benzylpiperidin-4-yl)amino)thiazol-4-yl)pyrido[3,4-d]pyrimidin-4(3H)-one], the inhibition at 0.1 µM was 20 to 50%. On to `CCOC(=O)c1nc(-c2nccc3c(=O)[nH]cnc23)cs1` [Compound 62, ethyl 4-(4-oxo-3,4-dihydropyrido[3,4-d]pyrimidin-8-yl)thiazole-2-carboxylate], for which the inhibition at 0.1 µM is less than 20%. In the case of `O=c1[nH]cnc2c(-c3cnn(CCO)c3)nccc12` [Compound 63, 8-(1-(2-hydroxyethyl)-1H-pyrazol-4-yl)pyrido[3,4-d]pyrimidin-4(3H)-one], the inhibition at 0.1 µM was 20 to 50%. `O=c1[nH]cnc2c(-c3cnn(Cc4ccccc4)c3)nccc12` [Compound 64, 8-(1-benzyl-1H-pyrazol-4-yl)pyrido[3,4-d]pyrimidin-4(3H)-one]: the inhibition at 0.1 µM lay within 20 to 50%. For the compound `O=c1[nH]cnc2c(-c3cnn(CCN4CCOCC4)c3)nccc12` [Compound 65, 8-(1-(2-morpholinoethyl)-1H-pyrazol-4-yl)pyrido[3,4-d]pyrimidin-4(3H)-one], the inhibition at 0.1 µM was 20 to 50%. Next, `O=c1[nH]c(COc2ccc(Cc3ccccc3)cc2)nc2c(-c3nccs3)nccc12` [Compound 66, 2-((4-benzylphenoxy)methyl)-8-(thiazol-2-yl)pyrido[3,4-d]pyrimidin-4(3H)-one]: less than 20%; `O=c1[nH]c(COc2ccc(Cc3ccccc3)cc2)nc2c(-c3ccccn3)nccc12` [Compound 67, 2-((4-benzylphenoxy)methyl)-8-(pyridin-2-yl)pyrido[3,4-d]pyrimidin-4(3H)-one]: 20 to 50%; `Nc1ncc(-c2nccc3c(=O)[nH]c(COc4ccc(Cc5ccccc5)cc4)nc23)s1` [Compound 68, 8-(2-aminothiazol-5-yl)-2-((4-benzylphenoxy)methyl) pyrido[3,4-d]pyrimidin-4(3H)-one]: less than 20%. Next, `Nc1ccn(-c2nccc3c(=O)[nH]c(COc4ccc(Cc5ccccc5)cc4)nc23)n1` [Compound 69, 8-(3-amino-1H-pyrazol-1-yl)-2-((4-benzylphenoxy)methyl) pyrido[3,4-d]pyrimidin-4(3H)-one]: less than 20%. With `Cn1cnc(-c2nccc3c(=O)[nH]c(COc4ccc(Cc5ccccc5)cc4)nc23)c1` [Compound 70, 2-((4-benzylphenoxy)methyl)-8-(1-methyl-1H-imidazol-4-yl)pyrido[3,4-d]pyrimidin-4(3H)-one], the inhibition at 0.1 µM is 20 to 50%. `Nc1nc(-c2nccc3c(=O)[nH]c(COc4ccc(Cc5ccccc5)cc4)nc23)cs1` [Compound 71, 8-(2-aminothiazol-4-yl)-2-((4-benzylphenoxy)methyl) pyrido[3,4-d]pyrimidin-4(3H)-one]: the inhibition at 0.1 µM was no less than 50%. Next, `C=CCNc1nc(-c2nccc3c(=O)[nH]c(COc4ccc(Cc5ccccc5)cc4)nc23)cs1` [Compound 72, 8-(2-(allylamino)thiazol-4-yl)-2-((4-benzylphenoxy)methyl) pyrido[3,4-d]pyrimidin-4(3H)-one]: 20 to 50%; `O=c1[nH]c(COc2ccc(Cc3ccccc3)cc2)nc2c(-c3csc(Nc4ccccc4)n3)nccc12` [Compound 73, 2-((4-benzylphenoxy)methyl)-8-(2-(phenylamino)thiazol-4-yl)pyrido[3,4-d]pyrimidin-4(3H)-one]: less than 20%; `O=c1[nH]c(COc2ccc(F)c(Cl)c2)nc2c(-c3nccs3)nccc12` [Compound 74, 2-((3-chloro-4-fluorophenoxy)methyl)-8-(thiazol-2-yl)pyrido[3,4-d]pyrimidin-4(3H)-one]: 20 to 50%.

Take `Nc1ncc(-c2nccc3c(=O)[nH]c(COc4ccc(F)c(Cl)c4)nc23)s1` [Compound 75, 8-(2-aminothiazol-5-yl)-2-((3-chloro-4-fluorophenoxy)methyl) pyrido[3,4-d]pyrimidin-4(3H)-one]: the inhibition at 0.1 µM was less than 20%. With `O=c1[nH]c(COc2ccc(F)c(Cl)c2)nc2c(-c3cc[nH]n3)nccc12` [Compound 76, 2-((3-chloro-4-fluorophenoxy)methyl)-8-(1H-pyrazol-3-yl)pyrido[3,4-d]pyrimidin-4(3H)-one], the inhibition at 0.1 µM was less than 20%.

On to `Cn1cnc(-c2nccc3c(=O)[nH]c(COc4ccc(F)c(Cl)c4)nc23)c1` [Compound 77, 2-((3-chloro-4-fluorophenoxy)methyl)-8-(1-methyl-1H-imidazol-4-yl)pyrido[3,4-d]pyrimidin-4(3H)-one], for which the inhibition at 0.1 µM was 20 to 50%.

Consider `O=c1[nH]c(COc2ccc(F)c(Cl)c2)nc2c(-c3ccc(N4CCOCC4)nc3)nccc12` [Compound 78, 2-((3-chloro-4-fluorophenoxy)methyl)-8-(6-morpholinopyridin-3-yl)pyrido[3,4-d]pyrimidin-4(3H)-one], for which the inhibition at 0.1 µM is less than 20%. Turning to `O=c1[nH]c(COc2ccc(F)c(Cl)c2)nc2c(-c3cnccn3)nccc12` [Compound 79, 2-((3-chloro-4-fluorophenoxy)methyl)-8-(pyrazin-2-yl)pyrido[3,4-d]pyrimidin-4(3H)-one], the inhibition at 0.1 µM was in the range of 20 to 50%. Consider `O=c1[nH]c(COc2ccc(F)c(Cl)c2)nc2c(-c3ccccn3)nccc12` [Compound 80, 2-((3-chloro-4-fluorophenoxy)methyl)-8-(pyridin-2-yl)pyrido[3,4-d]pyrimidin-4(3H)-one], for which the inhibition at 0.1 µM was 20 to 50%. Next, `O=c1[nH]c(COc2ccc(F)c(Cl)c2)nc2c(-c3csc(NCCO)n3)nccc12` [Compound 81, 2-((3-chloro-4-fluorophenoxy)methyl)-8-(2-((2-hydroxyethyl)amino)thiazol-4-yl)pyrido[3,4-d]pyrimidin-4(3H)-one]: no less than 50%; `O=c1[nH]c(COc2ccc(F)c(Cl)c2)nc2c(-c3csc(NCCN4CCOCC4)n3)nccc12` [Compound 82, 2-((3-chloro-4-fluorophenoxy)methyl)-8-(2-((2-morpholinoethyl)amino)thiazol-4-yl)pyrido[3,4-d]pyrimidin-4(3H)-one]: no less than 50%; `C[C@@H](O)CNc1nc(-c2nccc3c(=O)[nH]c(COc4ccc(F)c(Cl)c4)nc23)cs1` [Compound 83, (R)-2-((3-chloro-4-fluorophenoxy)methyl)-8-(2-((2-hydroxypropyl)amino)thiazol-4-yl)pyrido[3,4-d]pyrimidin-4(3H)-one]: no less than 50%.

Turning to `C[C@H](O)CNc1nc(-c2nccc3c(=O)[nH]c(COc4ccc(F)c(Cl)c4)nc23)cs1` [Compound 84, (S)-2-((3-chloro-4-fluorophenoxy)methyl)-8-(2-((2-hydroxypropyl)amino)thiazol-4-yl)pyrido[3,4-d]pyrimidin-4(3H)-one], the inhibition at 0.1 µM is no less than 50%.

Consider `O=c1[nH]c(COc2ccc(F)c(Cl)c2)nc2c(-c3csc(NCC4CCCO4)n3)nccc12` (stereo not shown) [Compound 85, 2-((3-chloro-4-fluorophenoxy)methyl)-8-(2-(((tetrahydrofuran-2-yl)methyl)amino)thiazol-4-yl)pyrido[3,4-d]pyrimidin-4(3H)-one], for which the inhibition at 0.1 µM is no less than 50%.

For `COCCNc1nc(-c2nccc3c(=O)[nH]c(COc4ccc(F)c(Cl)c4)nc23)cs1` [Compound 86, 2-((3-chloro-4-fluorophenoxy)methyl)-8-(2-((2-methoxyethyl)amino)thiazol-4-yl)pyrido[3,4-d]pyrimidin-4(3H)-one], the inhibition at 0.1 µM is no less than 50%. Next, `CN(C)CCNc1nc(-c2nccc3c(=O)[nH]c(COc4ccc(F)c(Cl)c4)nc23)cs1` [Compound 87, 2-((3-chloro-4-fluorophenoxy)methyl)-8-(2-((2-(dimethylamino)ethyl)amino)thiazol-4-yl)pyrido[3,4-d]pyrimidin-4(3H)-one]: no less than 50%.

Regarding `NCCNc1nc(-c2nccc3c(=O)[nH]c(COc4ccc(F)c(Cl)c4)nc23)cs1` [Compound 88, 8-(2-((2-aminoethyl)amino)thiazol-4-yl)-2-((3-chloro-4-fluorophenoxy)methyl) pyrido[3,4-d]pyrimidin-4(3H)-one], the inhibition at 0.1 µM was no less than 50%.
